# Measured values published in patent publication US20120122727A1, “IN VITRO METHOD FOR PREDICTING WHETHER A COMPOUND IS GENOTOXIC IN VIVO” (priority 2009, published 2012).
# How the values were obtained:
# [1] = tested on: primary mouse hepatocytes; assay: Gene expression (Affymetrix Mouse Genome 430 2.0) in primary mouse hepatocytes, true vs false GTX, 24 h and 48 h; conditions: 48 h; log2, corrected for vehicle control
# [2] = tested on: primary mouse hepatocytes; assay: Gene expression in primary mouse hepatocytes, GTX vs non-GTX (four-gene classifier, 24 h)
# Protocol: Hepatocyte cells were incubated and exposed to a compound for 24 h before being harvested for RNA isolation.
# The results of the gene expression analysis may then be fed into a statistical software package such as R, Splus, or Microsoft Excel. […] If none or only one of these criteria were met, no point was scored.
# For each of the four genes mentioned in the table (1700007K13RIK, GAS2L3, SPC25, DDIT4L), a statistical comparison was made between the normalized expression data for these genes. […] If none or only one of these criteria were met, no point was scored.
# For each compound, the sum of the scores for four genes is taken. If this score is 0, a compound can be believed not to be genotoxic. If this score is 1, 2, 3 or 4, a compound is genotoxic.
# If none or only one of these criteria were met, no point was scored.
# [3] = 24 h exposure, average of four replicates
# [4] = log 2 ratio, 24 h exposure, concentration per Table 4
smiles,measurement,setting,value
"CN(C)N=O [DMN, Dimethylnitrosamine]",Gene expression AK017734 average,[1],1.0611
same,Gene expression AK018383 average,[1],0.8246
same,Gene expression AK019979 average,[1],−1.11
same,Gene expression AV095209 average,[1],−0.454
same,Gene expression AV141095 average,[1],−0.8663
same,Gene expression AV173869 average,[1],−1.272
same,Gene expression AV216768 average,[1],−0.2641
same,Gene expression AV219418 average,[1],4.5473
same,Gene expression AV221299 average,[1],−1.5693
same,Gene expression AV246296 average,[1],0.9572
same,Gene expression AV251625 average,[1],1.246
same,Gene expression AV254764 average,[1],1.133
same,Gene expression AV327248 average,[1],4.023
same,Gene expression BB009155 average,[1],2.343
same,Gene expression BB027848 average,[1],1.191
same,Gene expression BB043558 average,[1],2.187
same,Gene expression BB046347 average,[1],0.7743
same,Gene expression BB140436 average,[1],−1.281
same,Gene expression BB204486 average,[1],−0.3108
same,Gene expression BB223872 average,[1],1.694
same,Gene expression BB246912 average,[1],−0.9806
same,Gene expression BB275142 average,[1],1.162
same,Gene expression BB458460 average,[1],−0.6934
same,Gene expression BB463610 average,[1],1.546
same,Gene expression BB730977 average,[1],−0.656
same,Gene expression BB743970 average,[1],3.154
same,Gene expression BB770528 average,[1],1.709
same,Gene expression BB781615 average,[1],1.487
same,Gene expression BC003284 average,[1],1.379
same,Gene expression BC004827 average,[1],−1.0689
same,Gene expression BC005552 average,[1],−0.5235
same,Gene expression BC006713 average,[1],1.668
same,Gene expression BC010318 average,[1],−1.167
same,Gene expression BC012247 average,[1],1.67
same,Gene expression BC012955 average,[1],−1.97
same,Gene expression BC013893 average,[1],0.5487
same,Gene expression BC017615 average,[1],−2.7334
same,Gene expression BC019379 average,[1],−0.3602
same,Gene expression BC019882 average,[1],1.494
same,Gene expression BC021352 average,[1],3.512
same,Gene expression BC022148 average,[1],1.8449
same,Gene expression BC025169 average,[1],−1.296
same,Gene expression BC026131 average,[1],−0.7571
same,Gene expression BC027026 average,[1],2.571
same,Gene expression BC027121 average,[1],2.075
same,Gene expression BC027185 average,[1],1.462
same,Gene expression BE956581 average,[1],3.033
same,Gene expression BF719766 average,[1],1.2016
same,Gene expression BG065754 average,[1],0.9953
same,Gene expression BG066491 average,[1],−0.9757
same,Gene expression BG076151 average,[1],1.205
same,Gene expression BG076333 average,[1],−0.7995
same,Gene expression BG797099 average,[1],1.704
same,Gene expression BG967046 average,[1],1.1973
same,Gene expression BI651416 average,[1],1.8588
same,Gene expression BI966443 average,[1],3.295
same,Gene expression BM198879 average,[1],1.096
same,Gene expression BM200015 average,[1],1.16
same,Gene expression BM230508 average,[1],1.54
same,Gene expression BM936480 average,[1],0.7781
same,Gene expression BQ174991 average,[1],−0.28
same,Gene expression L21027 average,[1],−0.4472
same,Gene expression NM_007556 average,[1],−1.29
same,Gene expression NM_007980 average,[1],0.3252
same,Gene expression NM_007987 average,[1],1.665
same,Gene expression NM_008522 average,[1],4.993
same,Gene expression NM_008935 average,[1],−1.382
same,Gene expression NM_009897 average,[1],3.619
same,Gene expression NM_011075 average,[1],2.401
same,Gene expression NM_011176 average,[1],1.597
same,Gene expression NM_011316 average,[1],2.0898
same,Gene expression NM_012006 average,[1],1.6671
same,Gene expression NM_013642 average,[1],0.3461
same,Gene expression NM_013738 average,[1],1.562
same,Gene expression NM_013929 average,[1],1.891
same,Gene expression NM_018881 average,[1],0.9481
same,Gene expression NM_019738 average,[1],−2.9169
same,Gene expression NM_030697 average,[1],2.5583
same,Gene expression NM_053122 average,[1],−2.3248
same,Gene expression NM_134147 average,[1],−1.579
same,Gene expression NM_134188 average,[1],−0.6378
same,Gene expression X62701 average,[1],0.07157
same,score 1700007K13RIK,[2]; [3],1
same,score DDIT4L,[2]; [3],0
same,score GAS2L3,[2]; [3],0
same,score SPC25,[2]; [3],0
same,Ratios of gene expression treated/untreated 1700007K13RIK,[2]; [4],2.141
same,Ratios of gene expression treated/untreated DDIT4L,[2]; [4],0.7662
same,Ratios of gene expression treated/untreated GAS2L3,[2]; [4],0.2166
same,Ratios of gene expression treated/untreated SPC25,[2]; [4],0.8368
same,Total score,"[2]; sum of scores for four genes, 0 = not genotoxic, 1, 2, 3 or 4 = genotoxic",1
